# Earlier results, collected in patent publication US11591275B2, “Smart release potash fertilizer granules” (RYNAN TECHNOLOGIES PTE LTD, priority 2018, dated 2023).
# Conditions: for pKa: of the organic acid in the extended release layer
pKa* of associated acids (acid associated with the anion pendant group of the anti-caking copolymer),pKa,Structure (SMILES)
4.23,4.23,"O=C(O)Cc1cccc2ccccc12 [1-Naphthalene Acetic Acid, 1-Naphthalene acetic acid]"
,4.10,O=C(O)C(=O)O [Oxalic Acid]
